{"source": "patent US20220304978A1", "about": "“INHIBITING MESANGIAL CELL ACTIVATION” (Chinook Therapeutics, Inc., priority 2019, published 2022)", "system": "kidney tissue of g-ddY mice", "experiment": "RNA-seq differential gene expression in kidney tissue of g-ddY mice", "type": "in vivo, mouse", "protocol": "RNA isolation and sequencing libraries were generated using standard protocols. Sequencing was performed using an Illumina NextSeq500 using manufacturer's instructions with a read length of 75 bp and a read depth of 30 million. Raw data was assembled to FASTQ files. Following QC analysis, high quality sequencing reads (e.g., reads with a Phred quality score >36) were aligned to the mouse reference genome (GRCm38-mm10) using the default parameters of the align algorithm and transcript count tables of each library was generated using the default parameters of the featureCounts algorithm of the RSubread package (Liao Y, Smyth GK, Shi W, 2019). High quality sequencing reads mapped to 27,129 genes. Following additional QC of low count filtering (i.e. transcripts <10 counts across all samples), 16,207 genes were identified and used for further analysis. The remaining sequencing read counts of the included 16,207 genes were normalized to library size, log-transformed, and were quantified as counts per million (CPM). Select RNA-seq counts were validated using qPCR. Sequencing read counts (CPM) were used for identification of differential gene expression between specified populations using the quasi-likelihood methodology of the edgeR package. […] MA plots were generated using edgeR. Heatmaps and other plots were generated using the gplots and ggplot2 package.", "key": {"[1]": {"details": "10 mg/kg/day vs control, mesangial cell signature"}, "[2]": {"details": "20 mg/kg/day vs control, IL6 signaling"}, "[3]": {"details": "20 mg/kg/day vs control, NF-kB signaling"}, "[4]": {"details": "20 mg/kg/day vs control, PDGF signaling"}, "[5]": {"details": "20 mg/kg/day vs control, cell proliferation signaling"}}, "data": [{"molecule": "CCCCN(CCCC)C(=O)CN1C[C@H](c2ccc3c(c2)OCO3)[C@@H](C(=O)O)[C@@H]1c1ccc(OC)cc1", "note": "[atrasentan, (2R,3R,4S)-4-(1,3-benzodioxol-5-yl)-1-[2-(dibutylamino)-2-oxoethyl]-2-(4-methoxyphenyl)pyrrolidine-3-carboxylic acid]", "values": [{"measurement": "Ankrd12 logFC", "setting": "[1]", "result": "−0.2824"}, {"measurement": "C7 logFC", "setting": "[1]", "result": "−0.7767"}, {"measurement": "Cald1 logFC", "setting": "[1]", "result": "−0.3719"}, {"measurement": "Cblb logFC", "setting": "[1]", "result": "−0.082"}, {"measurement": "Ebf1 logFC", "setting": "[1]", "result": "−0.3301"}, {"measurement": "Epb41l2 logFC", "setting": "[1]", "result": "−0.4375"}, {"measurement": "Ets1 logFC", "setting": "[1]", "result": "−0.2198"}, {"measurement": "Fchsd2 logFC", "setting": "[1]", "result": "−0.2564"}, {"measurement": "Frmd4a logFC", "setting": "[1]", "result": "−0.2838"}, {"measurement": "Gata3 logFC", "setting": "[1]", "result": "−0.4822"}, {"measurement": "Gpx3 logFC", "setting": "[1]", "result": 0.6802}, {"measurement": "Igfbp7 logFC", "setting": "[1]", "result": 0.2052}, {"measurement": "Lama2 logFC", "setting": "[1]", "result": "−0.2955"}, {"measurement": "Maml2 logFC", "setting": "[1]", "result": "−0.2318"}, {"measurement": "Meis1 logFC", "setting": "[1]", "result": "−0.2507"}, {"measurement": "Myh9 logFC", "setting": "[1]", "result": "−0.2094"}, {"measurement": "Myo1e logFC", "setting": "[1]", "result": "−0.2349"}, {"measurement": "Nbea logFC", "setting": "[1]", "result": "−0.2819"}, {"measurement": "Nfkbia logFC", "setting": "[1]", "result": "−0.5525"}, {"measurement": "Piezo2 logFC", "setting": "[1]", "result": "−0.4078"}, {"measurement": "Postn logFC", "setting": "[1]", "result": "−1.385"}, {"measurement": "Pparg logFC", "setting": "[1]", "result": "−0.6129"}, {"measurement": "Ppp1r12a logFC", "setting": "[1]", "result": "−0.1995"}, {"measurement": "Prkg1 logFC", "setting": "[1]", "result": "−0.2187"}, {"measurement": "Psd3 logFC", "setting": "[1]", "result": "−0.3544"}, {"measurement": "Ptprm logFC", "setting": "[1]", "result": "−0.2614"}, {"measurement": "Rapgef5 logFC", "setting": "[1]", "result": "−0.2732"}, {"measurement": "Raph1 logFC", "setting": "[1]", "result": "−0.2965"}, {"measurement": "Rbms3 logFC", "setting": "[1]", "result": "−0.5749"}, {"measurement": "Robo1 logFC", "setting": "[1]", "result": "−0.4803"}, {"measurement": "Stard13 logFC", "setting": "[1]", "result": "−0.7224"}, {"measurement": "Tacc1 logFC", "setting": "[1]", "result": "−0.2449"}, {"measurement": "Tcf4 logFC", "setting": "[1]", "result": "−0.2176"}, {"measurement": "Tjp1 logFC", "setting": "[1]", "result": "−0.2489"}, {"measurement": "Tns3 logFC", "setting": "[1]", "result": "−0.2638"}, {"measurement": "Unc5c logFC", "setting": "[1]", "result": 0.5618}, {"measurement": "Utrn logFC", "setting": "[1]", "result": "−0.49"}, {"measurement": "Cntfr logFC", "setting": "[2]", "result": "−0.8574"}, {"measurement": "Csf1 logFC", "setting": "[2]", "result": "−1.089"}, {"measurement": "Il1r1 logFC", "setting": "[2]", "result": "−0.8263"}, {"measurement": "Il2ra logFC", "setting": "[2]", "result": "−0.959"}, {"measurement": "Map3k8 logFC", "setting": "[2]", "result": "−0.8222"}, {"measurement": "Ackr3 logFC", "setting": "[3]", "result": 0.4917}, {"measurement": "Atf3 logFC", "setting": "[3]", "result": "−2.107"}, {"measurement": "Btg1 logFC", "setting": "[3]", "result": "−0.5187"}, {"measurement": "Btg2 logFC", "setting": "[3]", "result": "−0.6974"}, {"measurement": "Ccn1 logFC", "setting": "[3]", "result": "−1.087"}, {"measurement": "Ccnd1 logFC", "setting": "[3]", "result": 0.644}, {"measurement": "Cdkn1a logFC", "setting": "[3]", "result": 0.2546}, {"measurement": "Csf1 logFC", "setting": "[3]", "result": "−1.089"}, {"measurement": "Cxcl2 logFC", "setting": "[3]", "result": "−2.5772"}, {"measurement": "Dnajb4 logFC", "setting": "[3]", "result": "−0.3548"}, {"measurement": "Edn1 logFC", "setting": "[3]", "result": "−1.328"}, {"measurement": "Efna1 logFC", "setting": "[3]", "result": 0.286}, {"measurement": "Ehd1 logFC", "setting": "[3]", "result": 0.2715}, {"measurement": "F3 logFC", "setting": "[3]", "result": "−0.5235"}, {"measurement": "Fosl2 logFC", "setting": "[3]", "result": "−1.122"}, {"measurement": "Gem logFC", "setting": "[3]", "result": "−1.237"}, {"measurement": "Id2 logFC", "setting": "[3]", "result": 0.2228}, {"measurement": "Ifit2 logFC", "setting": "[3]", "result": "−0.6323"}, {"measurement": "Jag1 logFC", "setting": "[3]", "result": "−0.3939"}, {"measurement": "Klf2 logFC", "setting": "[3]", "result": "−0.4816"}, {"measurement": "Klf4 logFC", "setting": "[3]", "result": "−0.904"}, {"measurement": "Map3k8 logFC", "setting": "[3]", "result": "−0.8222"}, {"measurement": "Nfat5 logFC", "setting": "[3]", "result": "−0.323"}, {"measurement": "Nfkb1 logFC", "setting": "[3]", "result": "−0.616"}, {"measurement": "Nfkbia logFC", "setting": "[3]", "result": "−0.7041"}, {"measurement": "Nr4a1 logFC", "setting": "[3]", "result": "−1.621"}, {"measurement": "Nr4a2 logFC", "setting": "[3]", "result": "−1.111"}, {"measurement": "Nr4a3 logFC", "setting": "[3]", "result": "−1.113"}, {"measurement": "Per1 logFC", "setting": "[3]", "result": "−0.1216"}, {"measurement": "Pfkfb3 logFC", "setting": "[3]", "result": "−1.125"}, {"measurement": "Pnrcl logFC", "setting": "[3]", "result": 0.04156}, {"measurement": "Rel logFC", "setting": "[3]", "result": "−1.0782"}, {"measurement": "Rhob logFC", "setting": "[3]", "result": "−0.5419"}, {"measurement": "Serpine1 logFC", "setting": "[3]", "result": "−1.501"}, {"measurement": "Snn logFC", "setting": "[3]", "result": 0.4753}, {"measurement": "Spsb1 logFC", "setting": "[3]", "result": "−0.654"}, {"measurement": "Tnfaip8 logFC", "setting": "[3]", "result": 0.4}, {"measurement": "Traf1 logFC", "setting": "[3]", "result": "−1.485"}, {"measurement": "Trib1 logFC", "setting": "[3]", "result": "−0.7668"}, {"measurement": "Zbtb10 logFC", "setting": "[3]", "result": "−0.2586"}, {"measurement": "Hras logFC", "setting": "[4]", "result": 0.06802}, {"measurement": "Map3k1 logFC", "setting": "[4]", "result": "−0.7203"}, {"measurement": "Nfkb1 logFC", "setting": "[4]", "result": "−0.616"}, {"measurement": "Nfkbia logFC", "setting": "[4]", "result": "−0.7041"}, {"measurement": "Pdgfb logFC", "setting": "[4]", "result": "−0.8375"}, {"measurement": "Pdgfra logFC", "setting": "[4]", "result": "−0.658"}, {"measurement": "Pik3cg logFC", "setting": "[4]", "result": "−1.096"}, {"measurement": "Pik3r1 logFC", "setting": "[4]", "result": "−0.4284"}, {"measurement": "Pla2g4a logFC", "setting": "[4]", "result": "−0.8381"}, {"measurement": "Tiam1 logFC", "setting": "[4]", "result": "−0.9494"}, {"measurement": "Arid4a logFC", "setting": "[5]", "result": "−0.196"}, {"measurement": "Atrx logFC", "setting": "[5]", "result": "−0.2188"}, {"measurement": "Bcar1 logFC", "setting": "[5]", "result": 0.346}, {"measurement": "Ccdc88a logFC", "setting": "[5]", "result": "−0.6374"}, {"measurement": "Ccnd1 logFC", "setting": "[5]", "result": 0.644}, {"measurement": "Cep192 logFC", "setting": "[5]", "result": "−0.4173"}, {"measurement": "Cntrl logFC", "setting": "[5]", "result": "−0.3963"}, {"measurement": "Dmd logFC", "setting": "[5]", "result": "−0.3485"}, {"measurement": "Epb41l2 logFC", "setting": "[5]", "result": "−0.6149"}, {"measurement": "Fgd6 logFC", "setting": "[5]", "result": "−0.3419"}, {"measurement": "Flna logFC", "setting": "[5]", "result": "−0.7842"}, {"measurement": "Itsn1 logFC", "setting": "[5]", "result": "−0.2752"}, {"measurement": "Kmt5a logFC", "setting": "[5]", "result": 0.2873}, {"measurement": "Meis1 logFC", "setting": "[5]", "result": "−0.3593"}, {"measurement": "Myh9 logFC", "setting": "[5]", "result": "−0.4543"}, {"measurement": "Myh10 logFC", "setting": "[5]", "result": "−0.1801"}, {"measurement": "Myo1e logFC", "setting": "[5]", "result": "−0.292"}, {"measurement": "Nin logFC", "setting": "[5]", "result": "−0.4236"}, {"measurement": "Ophn1 logFC", "setting": "[5]", "result": "−0.7587"}]}]}
